According to patent US11896558B2, “Use of an RXR agonist and taxanes in treating Her2+ cancers” (Io Therapeutics, Inc., priority 2021, dated 2024):
“Also recorded” adds a separate entry of the source.

Assays:
[1] = system: NSCLC (non-small cell lung cancer); settings: cited from earlier work
[2] = system: PPAR/RXR, FXR/RXR, or LXR/RXR; settings: cited from earlier work
[3] = system: Her2+ AU565 human breast cancer cell line; test: Growth inhibition of AU565 cells, nuclei count; type: cell-based; settings: paclitaxel 2.5, 5 or 10 nM, IRX4204 10, 100 or 1000 nM, 6-10 days
Experimental: After 6-10 days of treatment, cells were fixed with 4% paraformaldehyde. Nuclei were stained with DAPI, imaged using ImageXpress® Pico (Molecular Devices) and counted using CellReporterXpress® Analysis Software. Each data point represents the average of six replicates.
To assess whether the increased inhibition from the combination of agents was additive or synergistic, the Combination Index (CI) was calculated using the computational program CompuSyn (ComboSyn, Inc.).

Nurr1/RXR heterodimer = test: Activation of Nurr1/RXR heterodimer; settings: permissive heterodimer
RAR/RXR = test: Activation of non-permissive RAR/RXR heterodimer; type: cell-based
RARγ = RARγ (Homo sapiens, UniProt P13631); settings: γ isoform
[4] = Daily dosing of IRX4204 free acid in adult human; type: in vivo
[5] = Systemic concentrations after oral dosing in humans
FXR/RXR = test: Activation of FXR/RXR heterodimer; settings: permissive heterodimer
PPAR/RXR = test: Activation of PPAR/RXR heterodimer; type: cell-based; settings: permissive heterodimer
LXR/RXR = test: Activation of LXR/RXR heterodimer; type: cell-based; settings: permissive heterodimer
RXR homodimers = test: Activation of RXR homodimers; type: cell-based
RARα = RARα (Homo sapiens, UniProt P10276); settings: α isoform
RARβ = RARβ (Homo sapiens, UniProt P10826); settings: β isoform
RARβ, sequence (P10826 whole entry, species assumed, canonical isoform): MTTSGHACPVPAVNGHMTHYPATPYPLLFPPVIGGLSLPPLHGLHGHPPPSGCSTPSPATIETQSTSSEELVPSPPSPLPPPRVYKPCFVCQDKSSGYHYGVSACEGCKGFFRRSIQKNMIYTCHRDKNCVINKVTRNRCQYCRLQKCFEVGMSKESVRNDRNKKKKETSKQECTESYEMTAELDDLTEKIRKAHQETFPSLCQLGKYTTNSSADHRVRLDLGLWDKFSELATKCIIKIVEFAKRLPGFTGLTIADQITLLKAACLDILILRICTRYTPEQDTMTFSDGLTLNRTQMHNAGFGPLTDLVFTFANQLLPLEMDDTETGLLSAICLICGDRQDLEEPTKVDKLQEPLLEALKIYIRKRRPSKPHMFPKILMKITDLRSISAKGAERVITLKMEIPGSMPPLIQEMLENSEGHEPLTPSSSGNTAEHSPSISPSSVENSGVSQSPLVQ

RARγ, sequence (P13631 whole entry, species assumed, canonical isoform): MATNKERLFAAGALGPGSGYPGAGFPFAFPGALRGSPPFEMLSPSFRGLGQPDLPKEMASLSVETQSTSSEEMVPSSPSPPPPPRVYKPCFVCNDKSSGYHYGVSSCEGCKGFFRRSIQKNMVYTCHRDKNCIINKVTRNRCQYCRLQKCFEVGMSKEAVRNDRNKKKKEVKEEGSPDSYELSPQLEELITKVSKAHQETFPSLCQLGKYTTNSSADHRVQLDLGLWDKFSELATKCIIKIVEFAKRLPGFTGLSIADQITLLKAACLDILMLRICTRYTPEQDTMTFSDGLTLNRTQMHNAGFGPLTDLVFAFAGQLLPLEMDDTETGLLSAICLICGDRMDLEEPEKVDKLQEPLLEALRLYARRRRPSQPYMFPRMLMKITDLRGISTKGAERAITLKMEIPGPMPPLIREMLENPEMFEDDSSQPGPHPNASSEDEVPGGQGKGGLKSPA
RARα, sequence (P10276 whole entry, species assumed, canonical isoform): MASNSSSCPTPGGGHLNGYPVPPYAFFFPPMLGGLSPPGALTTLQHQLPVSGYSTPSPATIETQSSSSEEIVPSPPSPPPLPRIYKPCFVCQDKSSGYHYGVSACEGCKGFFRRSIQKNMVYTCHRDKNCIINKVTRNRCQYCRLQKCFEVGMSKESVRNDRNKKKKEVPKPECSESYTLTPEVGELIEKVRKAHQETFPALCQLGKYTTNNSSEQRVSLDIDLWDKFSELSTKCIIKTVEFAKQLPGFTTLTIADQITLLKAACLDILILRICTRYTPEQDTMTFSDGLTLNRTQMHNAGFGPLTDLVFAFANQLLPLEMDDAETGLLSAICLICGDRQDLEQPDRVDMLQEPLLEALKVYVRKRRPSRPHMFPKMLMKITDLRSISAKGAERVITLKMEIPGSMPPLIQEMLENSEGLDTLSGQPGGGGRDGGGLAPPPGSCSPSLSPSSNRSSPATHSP

## C=C(c1ccc(C(=O)O)cc1)c1cc2c(cc1C)C(C)(C)CCC2(C)C [TARGRETIN, bexarotene]
[1]; NSCLC
  survival in pivotal Phase III clinical study: did not show increased survival
[1]; several Phase II studies in NSCLC
  results of Phase II studies: Encouraging results

## Cc1cc2c(cc1C1(c3ccc(C(=O)O)cn3)CC1)C(C)(C)CCC2(C)C [LGD268]
[2]
  activation of one or more of PPAR/RXR, FXR/RXR, or LXR/RXR: activates one or more of PPAR/RXR, FXR/RXR, or LXR/RXR

## CC(=O)O[C@H]1C(=O)[C@@]2(C)[C@H]([C@H](OC(=O)c3ccccc3)[C@]3(O)C[C@H](OC(=O)[C@H](O)[C@@H](NC(=O)c4ccccc4)c4ccccc4)C(C)=C1C3(C)C)[C@]1(OC(C)=O)CO[C@@H]1C[C@@H]2O [paclitaxel, Paclitaxel, reference compound]
[3]
  growth inhibition as sole agent: sensitive

## CC(/C=C/[C@@H]1C[C@]1(C)c1ccc2c(c1)C(C)(C)CCC2(C)C)=C\C(=O)O [IRX4204, 3,7-dimethyl-6(S),7(S)-methano,7-[1,1,4,4-tetramethyl-1,2,3,4-tetrahydron-aphth-7-yl]2(E), 4(E) heptadienoic acid]
Nurr1/RXR heterodimer
  activation of Nurr1/RXR heterodimer: specifically activates
RAR/RXR
  activation of RAR/RXR heterodimer: does not activate
RARγ
  RAR EC10 (concentration effective to cause a 10% of maximal activation of the RAR): 200 nM
[4]; 10 mg/day free acid
  hypothyroidism: does not result in hypothyroidism
[4]; 20 mg/day free acid
  hypothyroidism: may induce a mild hypothyroidism
[5]; oral dosage 0.01 to 0.02 mg/m^2/day, estimated
  systemic concentrations: at least 0.1 nM
[5]; oral dosage 20 mg/m^2/day, based on studies in humans
  systemic concentrations: below 200 nM
FXR/RXR
  activation of FXR/RXR heterodimer: does not activate
PPAR/RXR
  activation of PPAR/RXR heterodimer: does not activate
[3]
  growth inhibition as sole agent: sensitive; also recorded: near maximal effect
LXR/RXR
  activation of LXR/RXR heterodimer: does not activate
RXR homodimers
  activation of RXR homodimers: specifically activate
RARα
  RAR EC10 (concentration effective to cause a 10% of maximal activation of the RAR): 300 nM
RARβ
  RAR EC10 (concentration effective to cause a 10% of maximal activation of the RAR): 200 nM
